In patent US9708314B2, “Heterocyclic amide compound” (NISSAN CHEMICAL INDUSTRIES, LTD., priority 2013, dated 2017):

Key:
Type in all cases: in vivo
Scirpus juncoides [1] = test: Test Example 1: herbicidal activity, application before weed generation in submerged conditions; details: Application herbicide amount 320 g/ha; Seventeenth Table
Outline: (§1)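 Rating, on a six-step scale from almost no effect (0) to almost completely withered (5), was made three weeks after pre-emergence treatment. Treatment was surface application to flooded pots at g/ha rates, with plants kept at 25° C. to 30° C.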

[2] = tested on: Echinochloa oryzacola Vasing.; test: as above; details: Application herbicide amount 320 g/ha; Seventeenth Table
Outline: as §1

Monochoria vaginalis [3] = test: as above; details: Application herbicide amount 320 g/ha; Seventeenth Table
Outline: as §1

[4] = tested on: transplanted Oryza sativa; test: Test Example 1: effect on crop, application before weed generation in submerged conditions; details: Application herbicide amount 320 g/ha; Seventeenth Table
Outline: as §1

Scirpus juncoides [5] = test: Test Example 2: herbicidal activity, application during weed generation in submerged conditions; details: Eighteenth Table; application herbicide amount 320 g/ha
Outline: (§2)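 Post-emergence application under submerged conditions: water-diluted emulsion dosed onto the water surface (g/ha) when weeds reach one- to two-leaf stage. Soil flooded to 4 cm; greenhouse 25–30 °C. Herbicidal ratio graded in six classes, 0 (≤5%) to 5 (≥90%), at three weeks.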

[6] = tested on: Echinochloa oryzacola Vasing.; test: as above; details: Eighteenth Table; application herbicide amount 320 g/ha
Outline: as §2

Monochoria vaginalis [7] = test: as above; details: Eighteenth Table; application herbicide amount 320 g/ha
Outline: as §2

| Structure (SMILES) | B: Scirpus juncoides (herbicidal effect grade) (Scirpus juncoides [1]) | A: Echinochloa oryzicola Vasing. (herbicidal effect grade) [2] | C: Monochoria vaginalis (herbicidal effect grade) (Monochoria vaginalis [3]) | a: transplanted Oryza sativa (effect on crop grade) [4] | B (Scirpus juncoides) herbicidal ratio grade (Scirpus juncoides [5]) | A (Echinochloa oryzicola Vasing.) herbicidal ratio grade [6] | C (Monochoria vaginalis) herbicidal ratio grade (Monochoria vaginalis [7]) |
| --- | --- | --- | --- | --- | --- | --- | --- |
| COc1ccc(-c2nnc3c(C(=O)Nc4nnco4)ccc(C(F)(F)F)n23)cc1 [1-149] | 4 (Herbicidal ratio of 70% or more and less than 90%) | 5 (Herbicidal ratio of 90% or more (almost completely withered)) | 3 (Herbicidal ratio of 40% or more and less than 70%) | 3 (Herbicidal ratio of 40% or more and less than 70%) | 3 (Herbicidal ratio of 40% or more and less than 70%) | 3 (Herbicidal ratio of 40% or more and less than 70%) | 2 (Herbicidal ratio of 20% or more and less than 40%) |
| O=C(Nc1nnco1)c1ccc(C(F)(F)F)n2c(-c3ccc(Cl)nc3)nnc12 [1-150] | 5 (Herbicidal ratio of 90% or more (almost completely withered)) | 5 (Herbicidal ratio of 90% or more (almost completely withered)) | 5 (Herbicidal ratio of 90% or more (almost completely withered)) | 4 (Herbicidal ratio of 70% or more and less than 90%) | 5 (Herbicidal ratio of 90% or more (almost completely withered)) | 5 (Herbicidal ratio of 90% or more (almost completely withered)) | 4 (Herbicidal ratio of 70% or more and less than 90%) |
| COc1ccc(Cc2nnc3c(C(=O)Nc4nnco4)ccc(C(F)(F)F)n23)cc1 [1-151] | 5 (Herbicidal ratio of 90% or more (almost completely withered)) | 5 (Herbicidal ratio of 90% or more (almost completely withered)) | 3 (Herbicidal ratio of 40% or more and less than 70%) | 0 (Herbicidal ratio of 5% or less (almost no effect)) | 4 (Herbicidal ratio of 70% or more and less than 90%) | 4 (Herbicidal ratio of 70% or more and less than 90%) | 2 (Herbicidal ratio of 20% or more and less than 40%) |
| C#CCN(C)c1nnc2c(C(=O)Nc3nnc(C)o3)ccc(C(F)(F)F)n12 [1-152] | 4 (Herbicidal ratio of 70% or more and less than 90%) | 5 (Herbicidal ratio of 90% or more (almost completely withered)) | 3 (Herbicidal ratio of 40% or more and less than 70%) | 2 (Herbicidal ratio of 20% or more and less than 40%) | 3 (Herbicidal ratio of 40% or more and less than 70%) | 3 (Herbicidal ratio of 40% or more and less than 70%) | 3 (Herbicidal ratio of 40% or more and less than 70%) |
| Cc1nnc(NC(=O)c2ccc(C(F)(F)F)n3c(N(C)CCC#N)nnc23)o1 [1-153] | 3 (Herbicidal ratio of 40% or more and less than 70%) | 3 (Herbicidal ratio of 40% or more and less than 70%) | 4 (Herbicidal ratio of 70% or more and less than 90%) | 2 (Herbicidal ratio of 20% or more and less than 40%) | 3 (Herbicidal ratio of 40% or more and less than 70%) | 3 (Herbicidal ratio of 40% or more and less than 70%) | 3 (Herbicidal ratio of 40% or more and less than 70%) |
| COC1CCC(c2nnc3c(C(=O)Nc4nnc(C)o4)ccc(C(F)(F)F)n23)CC1 (stereo not shown) [1-169] | 4 (Herbicidal ratio of 70% or more and less than 90%) | 5 (Herbicidal ratio of 90% or more (almost completely withered)) | 4 (Herbicidal ratio of 70% or more and less than 90%) | 0 (Herbicidal ratio of 5% or less (almost no effect)) | 4 (Herbicidal ratio of 70% or more and less than 90%) | 3 (Herbicidal ratio of 40% or more and less than 70%) | 4 (Herbicidal ratio of 70% or more and less than 90%) |
| Cn1nnnc1NC(=O)c1ccc(C(F)(F)F)n2c(C3CC3)nnc12 [2-005] | 5 (Herbicidal ratio of 90% or more (almost completely withered)) | 5 (Herbicidal ratio of 90% or more (almost completely withered)) | 5 (Herbicidal ratio of 90% or more (almost completely withered)) | 0 (Herbicidal ratio of 5% or less (almost no effect)) | 3 (Herbicidal ratio of 40% or more and less than 70%) | 5 (Herbicidal ratio of 90% or more (almost completely withered)) | 4 (Herbicidal ratio of 70% or more and less than 90%) |
| CCC(CC)c1nnc2c(C(=O)Nc3nnnn3C)ccc(C(F)(F)F)n12 [2-006] | 5 (Herbicidal ratio of 90% or more (almost completely withered)) | 5 (Herbicidal ratio of 90% or more (almost completely withered)) | 5 (Herbicidal ratio of 90% or more (almost completely withered)) | 4 (Herbicidal ratio of 70% or more and less than 90%) | 5 (Herbicidal ratio of 90% or more (almost completely withered)) | 5 (Herbicidal ratio of 90% or more (almost completely withered)) | 5 (Herbicidal ratio of 90% or more (almost completely withered)) |
| Cn1nnnc1NC(=O)c1ccc(C(F)(F)F)n2c(-c3ccccc3)nnc12 [2-007] | 5 (Herbicidal ratio of 90% or more (almost completely withered)) | 5 (Herbicidal ratio of 90% or more (almost completely withered)) | 5 (Herbicidal ratio of 90% or more (almost completely withered)) | 3 (Herbicidal ratio of 40% or more and less than 70%) | 4 (Herbicidal ratio of 70% or more and less than 90%) | 4 (Herbicidal ratio of 70% or more and less than 90%) | 4 (Herbicidal ratio of 70% or more and less than 90%) |
| Cn1nnnc1NC(=O)c1ccc(C(F)(F)F)n2c(Cl)nnc12 [2-008] | 4 (Herbicidal ratio of 70% or more and less than 90%) | 4 (Herbicidal ratio of 70% or more and less than 90%) | 4 (Herbicidal ratio of 70% or more and less than 90%) | 1 (Herbicidal ratio of 5% or more and less than 20%) | 2 (Herbicidal ratio of 20% or more and less than 40%) | 3 (Herbicidal ratio of 40% or more and less than 70%) | 3 (Herbicidal ratio of 40% or more and less than 70%) |
| Cn1nnnc1NC(=O)c1ccc(C(F)(F)F)n2c(Br)nnc12 [2-009] | 3 (Herbicidal ratio of 40% or more and less than 70%) | 3 (Herbicidal ratio of 40% or more and less than 70%) | 4 (Herbicidal ratio of 70% or more and less than 90%) | 0 (Herbicidal ratio of 5% or less (almost no effect)) | 2 (Herbicidal ratio of 20% or more and less than 40%) | 3 (Herbicidal ratio of 40% or more and less than 70%) | 3 (Herbicidal ratio of 40% or more and less than 70%) |
| COc1ccc(-c2nnc3c(C(=O)Nc4nnnn4C)ccc(C(F)(F)F)n23)cc1 [2-011] | 5 (Herbicidal ratio of 90% or more (almost completely withered)) | 5 (Herbicidal ratio of 90% or more (almost completely withered)) | 5 (Herbicidal ratio of 90% or more (almost completely withered)) | 2 (Herbicidal ratio of 20% or more and less than 40%) | 3 (Herbicidal ratio of 40% or more and less than 70%) | 4 (Herbicidal ratio of 70% or more and less than 90%) | 4 (Herbicidal ratio of 70% or more and less than 90%) |
| Cn1nnnc1NC(=O)c1ccc(C(F)(F)F)n2c(-c3ccc(Cl)cc3)nnc12 [2-012] | 4 (Herbicidal ratio of 70% or more and less than 90%) | 5 (Herbicidal ratio of 90% or more (almost completely withered)) | 3 (Herbicidal ratio of 40% or more and less than 70%) | 1 (Herbicidal ratio of 5% or more and less than 20%) | 5 (Herbicidal ratio of 90% or more (almost completely withered)) | 4 (Herbicidal ratio of 70% or more and less than 90%) | 5 (Herbicidal ratio of 90% or more (almost completely withered)) |
